Experimental findings from patent US20260022143A1, “Cyclic Peptide Inhibitors of IL-23” (JANSSEN PHARMACEUTICA NV, priority 2022, published 2026) are described below.

One data set deals with T1, IL-23R (Homo sapiens, UniProt Q5VWK5).
T1 construct: host or cells: HEK293
T1 sequence (Q5VWK5 24-629): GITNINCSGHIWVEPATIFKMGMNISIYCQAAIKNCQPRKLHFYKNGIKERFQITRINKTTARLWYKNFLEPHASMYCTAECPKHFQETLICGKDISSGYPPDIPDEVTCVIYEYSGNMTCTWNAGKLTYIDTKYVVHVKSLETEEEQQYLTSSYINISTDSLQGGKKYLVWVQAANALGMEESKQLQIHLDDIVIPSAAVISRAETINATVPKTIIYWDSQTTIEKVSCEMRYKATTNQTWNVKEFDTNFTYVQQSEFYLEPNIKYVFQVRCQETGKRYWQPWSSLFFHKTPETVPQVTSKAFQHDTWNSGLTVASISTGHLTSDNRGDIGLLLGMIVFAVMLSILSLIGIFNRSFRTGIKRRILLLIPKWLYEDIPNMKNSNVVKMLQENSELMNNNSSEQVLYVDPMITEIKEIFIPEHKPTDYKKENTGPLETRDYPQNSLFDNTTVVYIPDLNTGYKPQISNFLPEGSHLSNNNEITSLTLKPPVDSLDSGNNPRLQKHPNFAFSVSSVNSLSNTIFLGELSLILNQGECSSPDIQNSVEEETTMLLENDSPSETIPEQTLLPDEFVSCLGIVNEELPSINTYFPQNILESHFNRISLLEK
Briefly: IL23R Reporter Assay. The format is cell-based. The settings on record: HEK293 cells containing IL-23R, IL-12RP1 and STAT-inducible firefly luciferase reporter; 10 ng/mL IL-23 (EC90); 5 h at 37° C.; read-out: IL23R Reporter Assay. For orientation: A reporter such as luciferase makes a cellular process visible.

Data set [1] has as its target T2, interleukin-23 (IL-23) receptor (Homo sapiens, UniProt Q5VWK5).
T2 construct: Cryopreserved peripheral blood mononuclear cells (PBMCs) from healthy donors were thawed; endogenous in cells; host or cells: cryopreserved PBMCs from healthy donors, expanded 4 days on anti-CD3 with IL-1
T2 sequence (Q5VWK5 24-629): T1 sequence (Q5VWK5 24-629)
The experiment in a line: PBMC pSTAT3 assay. The format is cell-based. The procedure: Cryopreserved peripheral blood mononuclear cells (PBMCs) from healthy donors were thawed and washed twice in ImmunoCult-XF T cell expansion medium (XF-TCEM) supplemented with CTL anti-aggregate wash. The cells were counted, resuspended at 2×10^5 cells per mL XF-TCEM supplemented with penicillin/streptomycin and 100 ng/mL IL-1 (BioLegend, 579404), and cultured in tissue culture flasks coated with anti-CD3 (eBioscience, 16-0037-85 or BD Pharmingen, 555329) at 37° C. in 5% CO2. On day 4 of culture, PBMCs were collected, washed twice in RPMI-1640 supplemented with 0.1% BSA (RPMI-BSA), and incubated in RPMI-BSA in upright tissue culture flasks for 4 hours at 37° C. in 5% CO2. Following this ‘starvation,’ a total of 6×10^4 cells in […] RPMI-BSA was transferred into each well of a 384-well plate pre-spotted with peptide or DMSO. The cells were incubated for 30 minutes prior to the addition of IL-23 at a final concentration of 5 ng/mL. The cells were stimulated with cytokine for 30 minutes at 37° C. in 5% CO2, transferred onto ice for 10 minutes, and lysed. Cell lysates were stored at −80° C. until phosphorylated STAT3 was measured using the phospho-STAT panel kit (Meso Scale Discovery, K15202D).

The nature of data set [2]: Exposed Polar Surface Area (EPSA). The format is physicochemical. As to conditions: SFC on Chirex 3014 column, sample 1 mM DMSO stock. In a few lines: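 Compounds, as 1 mM DMSO stock, were injected in duplicate onto an SFC Chirex 3014 column at 35 °C and eluted with a CO2/methanol (20 mM ammonium formate) gradient. EPSA values in Å^2 were derived from retention times using a linear fit to eight calibration standards, reinjected every 20 compounds.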

Counter-ions that a name gives are not always drawn. Like-named read-outs stand apart in the source and are kept apart here. Starred links: 1 amine or outer side, 2 acyl side, 3 side chain; linkers in the order of their positions; H or OH if unused. Positions of bridges follow the written chain, without caps; N, C: chain ends. Non-standard residues stand in square brackets, D forms with d. Residues, ends and D or L forms follow the SMILES beside them. Groups on a side chain read outwards from the residue. *: point of attachment. Me3N+(CH2)2O(CH2)2O(CH2)2CO = C[N+](C)(C)CCOCCOCCC(=O)*; Trp(7-Me) = Cc1cccc2c(C[C@H](N)C(=O)O)c[nH]c12; dLys(Me3) = C[N+](C)(C)CCCC[C@@H](N)C(=O)O; γGlu = O=C(O)[C@H](CCC(=O)[*:2])N[*:1]; 2Nal = N[C@@H](Cc1ccc2ccccc2c1)C(=O)O; AEF = NCCOc1ccc(C[C@H](N)C(=O)O)cc1; PEG6 = NCCOCCOCCOCCOCCOCCOCCC(=O)O; 3Pal = N[C@@H](Cc1cccnc1)C(=O)O; Myristoyl = CCCCCCCCCCCCCC(=O)*; Lys(Me) = CNCCCC[C@H](N)C(=O)O; NMeK = CN[C@@H](CCCCN)C(=O)O; Pen = CC(C)(S)[C@H](N)C(=O)O; Thp = NC1(C(=O)O)CCOCC1; X17 = C[N+]1(CC*)CCOCC1; X3 = C[N+](C)(C)CCCCC*; AEEA = NCCOCCOCC(=O)O; Me2NCH2CH2 = CN(C)CC*; Tfa = O=C(C(F)(F)F)*; Sar = CNCC(=O)O

Consider `CC(=O)NCCCC[C@H](NC(=O)C1(NC(=O)[C@H](Cc2ccc3ccccc3c2)NC(=O)[C@H](Cc2ccc(OCCN)cc2)NC(=O)[C@H]2NC(=O)[C@H](CCCCN(C)C(C)=O)NC(=O)[C@H](Cc3c[nH]c4c(C)cccc34)NC(=O)[C@H]([C@@H](C)O)NC(=O)[C@H](CC(N)=O)NC(=O)[C@@H](NC(C)=O)C(C)(C)SSC2(C)C)CCOCC1)C(=O)N[C@@H](CC(N)=O)C(=O)N[C@@H](Cc1cccnc1)C(=O)N(C)CC(N)=O` [SEQ ID 57] (Ac-[Pen]NT[Trp(7-Me)][Lys(Me)](Ac)[Pen][AEF][2Nal][Thp]K(Ac)N[3Pal][Sar]-NH2; disulfide 1-6), for which the values for the IC50 (at IL-23R; in data set [1]) were about 6290 nM and 7.6 pM, respectively. The EPSA was determined as 179.2 Å^2 in data set [2] (listed as 1) and 166 A^2 in data set [2] (read-out: EPSA).

The molecule `CC(=O)N(C)CCCC[C@@H]1NC(=O)[C@H](Cc2c[nH]c3c(C)cccc23)NC(=O)[C@H]([C@@H](C)O)NC(=O)[C@H](CC(=O)N(C)C)NC(=O)[C@@H](NC(=O)C(F)(F)F)C(C)(C)SSC(C)(C)[C@@H](C(=O)N[C@@H](Cc2ccc(OCCN)cc2)C(=O)N[C@@H](Cc2ccc3ccccc3c2)C(=O)NC2(C(=O)N[C@@H](CCCCN(C)C(C)=O)C(=O)N[C@@H](CC(N)=O)C(=O)N[C@@H](Cc3cccnc3)C(=O)N(C)CC(=O)N(C)C)CCOCC2)NC1=O` [compound 68, CF3CO-Pen(3)-N(N(Me)2)-T-7MeW-K(NMeAc)-Pen(3)-AEF-2Nal-THP-K(NMeAc)-N-3Pya-Sar-CON(Me)2] (Tfa-[Pen]D(NMe2)T[Trp(7-Me)][Lys(Me)](Ac)[Pen][AEF][2Nal][Thp][Lys(Me)](Ac)N[3Pal][Sar]-NMe2; disulfide 1-6) yielded an IC50 in data set [1] of 12 pM. The EPSA in data set [2] (read-out: EPSA) was 148 A^2.

For the molecule `CC(=O)N(C)CCCC[C@@H]1NC(=O)[C@H](Cc2c[nH]c3c(C)cccc23)NC(=O)[C@H]([C@@H](C)O)NC(=O)[C@H](CC(=O)N(C)C)NC(=O)[C@@H](NC(=O)C(F)(F)F)C(C)(C)SSC(C)(C)[C@@H](C(=O)N[C@@H](Cc2ccc(OCCN(C)C)cc2)C(=O)N[C@@H](Cc2ccc3ccccc3c2)C(=O)NC2(C(=O)N[C@@H](CCC(=O)O)C(=O)N[C@@H](CC(N)=O)C(=O)N[C@@H](Cc3cccnc3)C(=O)N(C)CC(=O)N(C)C)CCOCC2)NC1=O` [compound 104, CF3CO-Pen(3)-N(N(Me)2)-T-7MeW-K(NMeAc)-Pen(3)-AEF(N(Me)2)-2Nal-THP-E-N-3Pya-Sar-CON(Me)2] (Tfa-[Pen]D(NMe2)T[Trp(7-Me)][Lys(Me)](Ac)[Pen]Y(Me2NCH2CH2)[2Nal][Thp]EN[3Pal][Sar]-NMe2; disulfide 1-6), the IC50 in data set [1] is 3.2 pM. In addition, the EPSA in data set [2] (read-out: EPSA) stood at 150 A^2.

Molecule `CC(=O)NCCCC[C@@H]1NC(=O)[C@H](Cc2c[nH]c3c(C)cccc23)NC(=O)[C@H]([C@@H](C)O)NC(=O)[C@H](CC(N)=O)NC(=O)[C@@H](NC(=O)CCOCCOCC[N+](C)(C)C)C(C)(C)SSC(C)(C)[C@@H](C(=O)N[C@@H](Cc2ccc(OCCN)cc2)C(=O)N[C@@H](Cc2ccc3ccccc3c2)C(=O)NC2(C(=O)N[C@@H](CCC(=O)O)C(=O)N[C@@H](CC(N)=O)C(=O)N[C@@H](Cc3cccnc3)C(=O)N(C)CC(N)=O)CCOCC2)NC1=O` [compound 82, cPEG3aCO-Pen(3)-N-T-7MeW-K(Ac)-Pen(3)-AEF-2Nal-THP-E-N-3Pya-Sar-CONH2] ({Me3N+(CH2)2O(CH2)2O(CH2)2CO}-[Pen]NT[Trp(7-Me)]K(Ac)[Pen][AEF][2Nal][Thp]EN[3Pal][Sar]-NH2; disulfide 1-6) returned an IC50 in data set [1] of 5.7 pM. Moreover, the EPSA in data set [2] (read-out: EPSA) was 171 A^2.

On to `CC(=O)N[C@H](CCCC[N+](C)(C)C)C(=O)N[C@@H]1C(=O)N[C@@H](CC(=O)N(C)C)C(=O)N[C@@H]([C@@H](C)O)C(=O)N[C@@H](Cc2c[nH]c3c(C)cccc23)C(=O)N[C@@H](CCCCN(C)C(C)=O)C(=O)N[C@H](C(=O)N[C@@H](Cc2ccc(OCCN(C)C)cc2)C(=O)N[C@@H](Cc2ccc3ccccc3c2)C(=O)NC2(C(=O)N[C@@H](CCC(=O)O)C(=O)N[C@@H](CC(N)=O)C(=O)N[C@@H](Cc3cccnc3)C(=O)N(C)CC(=O)N(C)C)CCOCC2)C(C)(C)SSC1(C)C` [compound 105, MeCO-k(Me)3-Pen(3)-N(N(Me)2)-T-7MeW-K(NMeAc)-Pen(3)-AEF(N(Me)2)-2Nal-THP-E-N-3Pya-Sar-CON(Me)2] (Ac-[dLys(Me3)][Pen]D(NMe2)T[Trp(7-Me)][Lys(Me)](Ac)[Pen]Y(Me2NCH2CH2)[2Nal][Thp]EN[3Pal][Sar]-NMe2; disulfide 2-7), for which the IC50 in data set [1] was 7.5 pM. Besides, in data set [2] (read-out: EPSA), the EPSA turned out to be 155 A^2.

As to `CC(=O)N(C)CCCC[C@@H]1NC(=O)[C@H](Cc2c[nH]c3c(C)cccc23)NC(=O)[C@H]([C@@H](C)O)NC(=O)[C@H](CC(=O)N(C)C)NC(=O)[C@@H](NC(=O)CCOCCOCC[N+](C)(C)C)C(C)(C)SSC(C)(C)[C@@H](C(=O)N[C@@H](Cc2ccc(OCCCCC[N+](C)(C)C)cc2)C(=O)N[C@@H](Cc2ccc3ccccc3c2)C(=O)NC2(C(=O)N[C@@H](CCCCN(C)C(C)=O)C(=O)N[C@@H](CC(N)=O)C(=O)N[C@@H](Cc3cccnc3)C(=O)N(C)CC(=O)N(C)C)CCOCC2)NC1=O` [compound 164, cPEG3aCO-Pen(3)-N(N(Me)2)-T-7MeW-K(NMeAc)-Pen(3)-TMAPF-2Nal-THP-K(NMeAc)-N-3Pya-Sar-CON(Me)2] ({Me3N+(CH2)2O(CH2)2O(CH2)2CO}-[Pen]D(NMe2)T[Trp(7-Me)][Lys(Me)](Ac)[Pen]Y(X3)[2Nal][Thp][Lys(Me)](Ac)N[3Pal][Sar]-NMe2; disulfide 1-6), the IC50 in data set [1] amounted to 13 pM. In data set [2], this molecule yielded an EPSA of 144.54 Å^2.

Turning to `CC(=O)NCCCC[C@@H]1NC(=O)[C@H](Cc2c[nH]c3c(C)cccc23)NC(=O)[C@H]([C@@H](C)O)NC(=O)[C@H](CC(N)=O)NC(=O)[C@@H](NC(=O)[C@@H](CCCNC(=N)N)NC(C)=O)C(C)(C)SSC(C)(C)[C@@H](C(=O)N[C@@H](Cc2ccc(OCC[N+]3(C)CCOCC3)cc2)C(=O)N[C@@H](Cc2ccc3ccccc3c2)C(=O)NC2(C(=O)N[C@@H](CCC(=O)O)C(=O)N[C@@H](CC(N)=O)C(=O)N[C@@H](Cc3cccnc3)C(=O)N(C)CC(N)=O)CCOCC2)NC1=O` [compound 437] (Ac-[dR][Pen]NT[Trp(7-Me)]K(Ac)[Pen]Y(X17)[2Nal][Thp]EN[3Pal][Sar]-NH2; disulfide 2-7 (inferred)), the IC50 at IL-23R was determined as 1.2 nM. In data set [2] (read-out: EPSA), the EPSA was 186 A^2.

Take `CCCCCCCCCCCCCC(=O)N[C@@H](CCC(=O)NCCOCCOCCOCCOCCOCCOCCC(=O)NCCOCCOCC(=O)NCCCC[C@@H](C(N)=O)N(C)C(=O)[C@H](Cc1cccnc1)NC(=O)[C@H](CC(N)=O)NC(=O)[C@H](CCCCN(C)C(C)=O)NC(=O)C1(NC(=O)[C@H](Cc2ccc3ccccc3c2)NC(=O)[C@H](Cc2ccc(OCCCCC[N+](C)(C)C)cc2)NC(=O)[C@H]2NC(=O)[C@H](CCCCNC(C)=O)NC(=O)[C@H](Cc3c[nH]c4c(C)cccc34)NC(=O)[C@H]([C@@H](C)O)NC(=O)[C@H](CC(=O)N(C)C)NC(=O)[C@@H](NC(=O)CCOCCOCC[N+](C)(C)C)C(C)(C)SSC2(C)C)CCOCC1)C(=O)O` [compound 361, cPEG3aCO-Pen(3)-N(N(Me)2)-T-7MeW-K(Ac)-Pen(3)-TMAPF-2Nal-THP-K(NMeac)-N-3Pya-NMeK(PEG2PEG6gEC14)-CONH2] ({Me3N+(CH2)2O(CH2)2O(CH2)2CO}-[Pen]D(NMe2)T[Trp(7-Me)]K(Ac)[Pen]Y(X3)[2Nal][Thp][Lys(Me)](Ac)N[3Pal][NMeK]([AEEA-PEG6-γGlu-Myristoyl])-NH2; disulfide 1-6): the IC50 on IL-23R was 12 nM. Moreover, the EPSA in data set [2] (read-out: EPSA) came out at 168 A^2.
